Test results reported in patent US20240360157A1, “TYK2 INHIBITORS” (BIOGEN MA INC., priority 2021, published 2024).

Legend:
Assay type in all cases: biochemical
[1] = target: human JAK2 catalytic kinase (JH1) domain (Homo sapiens (Human), UniProt O60674); assay: ADP-Glo Kinase Assay, recombinant JAK2 catalytic kinase (JH1) domain; details: recombinant JH1 domain 0.2 nM, 15 μM ATP, JAK3-974 peptide, mean, read-out: JAK2 biochem IC50 (nM) Mean
Procedure, shortened: (§1)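 Luminescent ADP read-out after residual ATP depletion, 100 min reaction. Kinase domain concentrations were 4 nM (JAK1), 0.2 nM (JAK2), 0.3 nM (JAK3) and 2 nM (TYK2), each with 50 μM peptide. IC50 values came from 4-parameter logistic fits over 11 points, 3-fold steps, top 10 μM or 1 μM.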

[2] = target: human JAK3 catalytic kinase (JH1) domain (Homo sapiens (Human), UniProt P52333); assay: ADP-Glo Kinase Assay, recombinant JAK3 catalytic kinase (JH1) domain; details: recombinant JH1 domain 0.3 nM, 4 μM ATP, JAK3-974 peptide, mean, read-out: JAK3 biochem IC50 (nM) Mean
human JAK3 catalytic kinase (JH1) domain, sequence (P52333 822-1111): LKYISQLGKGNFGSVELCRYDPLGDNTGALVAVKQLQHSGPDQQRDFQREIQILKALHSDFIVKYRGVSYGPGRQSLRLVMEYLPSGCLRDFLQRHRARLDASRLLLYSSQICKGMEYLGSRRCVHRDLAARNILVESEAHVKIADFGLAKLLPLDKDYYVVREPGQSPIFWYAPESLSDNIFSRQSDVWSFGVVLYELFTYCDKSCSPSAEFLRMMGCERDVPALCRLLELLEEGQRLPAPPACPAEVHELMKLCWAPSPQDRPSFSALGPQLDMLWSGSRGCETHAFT
Procedure, shortened: as §1

[3] = target: human JAK1 catalytic kinase (JH1) domain (Homo sapiens (Human), UniProt P23458); assay: ADP-Glo Kinase Assay, recombinant JAK1 catalytic kinase (JH1) domain; details: recombinant JH1 domain 4 nM, 35 μM ATP, JAK3-342 peptide, mean, read-out: JAK1 biochem IC50 (nM) Mean
human JAK1 catalytic kinase (JH1) domain, sequence (P23458 875-1153): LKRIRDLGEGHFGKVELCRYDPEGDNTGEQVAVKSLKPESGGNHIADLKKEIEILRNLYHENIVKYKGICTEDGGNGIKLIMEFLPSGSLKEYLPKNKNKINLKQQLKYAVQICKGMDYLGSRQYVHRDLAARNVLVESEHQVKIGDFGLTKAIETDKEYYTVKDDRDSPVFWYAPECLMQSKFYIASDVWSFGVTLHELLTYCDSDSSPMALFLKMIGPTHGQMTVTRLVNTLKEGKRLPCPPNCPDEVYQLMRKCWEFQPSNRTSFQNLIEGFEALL
Procedure, shortened: as §1

[4] = target: human TYK2 catalytic kinase (JH1) domain (Homo sapiens (Human), UniProt P29597); assay: ADP-Glo Kinase Assay, recombinant TYK2 catalytic kinase (JH1) domain; details: recombinant JH1 domain 2 nM, 10 μM ATP, JAK3-974 peptide, mean, read-out: TYK2 biochem IC50 (nM) Mean
human TYK2 catalytic kinase (JH1) domain, sequence (P29597 897-1176): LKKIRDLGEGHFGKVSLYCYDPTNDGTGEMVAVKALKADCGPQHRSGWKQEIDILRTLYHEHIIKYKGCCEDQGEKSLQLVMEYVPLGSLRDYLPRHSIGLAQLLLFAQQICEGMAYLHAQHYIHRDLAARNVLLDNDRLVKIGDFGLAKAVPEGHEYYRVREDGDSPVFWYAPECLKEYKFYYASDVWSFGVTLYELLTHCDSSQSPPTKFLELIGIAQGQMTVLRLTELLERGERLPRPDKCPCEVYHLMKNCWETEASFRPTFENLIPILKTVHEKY
Procedure, shortened: as §1

human JAK2 catalytic kinase (JH1) domain, sequence (O60674 849-1124): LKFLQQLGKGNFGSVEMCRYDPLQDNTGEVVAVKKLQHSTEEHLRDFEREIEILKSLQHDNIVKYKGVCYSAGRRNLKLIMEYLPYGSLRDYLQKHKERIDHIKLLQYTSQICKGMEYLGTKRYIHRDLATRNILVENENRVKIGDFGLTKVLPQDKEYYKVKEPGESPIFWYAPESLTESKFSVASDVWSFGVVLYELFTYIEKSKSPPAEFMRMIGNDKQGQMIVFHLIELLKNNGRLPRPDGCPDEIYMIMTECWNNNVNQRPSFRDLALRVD

| SMILES | IC50 [1] [nM] | IC50 [2] [nM] | IC50 [3] [nM] | IC50 [4] [nM] |
| --- | --- | --- | --- | --- |
| Cn1cc(-c2nc3c(N4CC5CCC(C4)N5C(=O)[C@@H]4C[C@H]4F)ccnc3[nH]2)cn1 [Example 200, ((1S,2R)-2-fluorocyclopropyl)(3-(2-(1-methyl-1H-pyrazol-4-yl)-3H-imidazo[4,5-b]pyridin-7-yl)-3,8-diazabicyclo[3.2.1]octan-8-yl)methanone] | 6 | 78 | 9 | 0.4 |
| Cn1cc(-c2nc3c(N4CC5CCC(C4)N5C(=O)[C@@H]4CC4(F)F)ccnc3[nH]2)cn1 [Example 201, ((S)-2,2-difluorocyclopropyl)(3-(2-(1-methyl-1H-pyrazol-4-yl)-3H-imidazo[4,5-b]pyridin-7-yl)-3,8-diazabicyclo[3.2.1]octan-8-yl)methanone] | 9 | 164 | 14 | 1.5 |
| Cc1cc(-c2nc3c(N4CC5CCC(C4)N5C(=O)[C@@H]4C[C@H]4F)ccnc3[nH]2)ccn1 [Example 202, ((1S,2R)-2-fluorocyclopropyl)(3-(2-(2-methylpyridin-4-yl)-3H-imidazo[4,5-b]pyridin-7-yl)-3,8-diazabicyclo[3.2.1]octan-8-yl)methanone] | 14 | 199 | 5 | 2.5 |
| COc1cc(-c2nc3c(N4CC5CCC(C4)N5C(=O)[C@@H]4C[C@H]4F)ccnc3[nH]2)ccn1 [Example 203, ((1S,2R)-2-fluorocyclopropyl)(3-(2-(2-methoxypyridin-4-yl)-3H-imidazo[4,5-b]pyridin-7-yl)-3,8-diazabicyclo[3.2.1]octan-8-yl)methanone] | 42 | 578 | 19 | 7 |
| N#Cc1cc(-c2nc3c(N4CC5CCC(C4)N5C(=O)[C@@H]4C[C@H]4F)ccnc3[nH]2)ccn1 [Example 204, 4-(7-(8-((1S,2R)-2-fluorocyclopropane-1-carbonyl)-3,8-diazabicyclo[3.2.1]octan-3-yl)-3H-imidazo[4,5-b]pyridin-2-yl)picolinonitrile] | 49 | 716 | 36 | 12 |
| Cc1ccc(-c2nc3c(N4CC5CCC(C4)N5C(=O)[C@@H]4C[C@H]4F)ccnc3[nH]2)cn1 [Example 205, ((1S,2R)-2-fluorocyclopropyl)(3-(2-(6-methylpyridin-3-yl)-3H-imidazo[4,5-b]pyridin-7-yl)-3,8-diazabicyclo[3.2.1]octan-8-yl)methanone] | 22 | 246 | 25 | 4.6 |
| O=C([C@@H]1C[C@H]1F)N1C2CCC1CN(c1ccnc3[nH]c(-c4ccc(C(F)F)nc4)nc13)C2 [Example 206] | 35 | 744 | 24 | 6.8 |
| O=C([C@@H]1C[C@H]1F)N1C2CCC1CN(c1ccnc3[nH]c(-c4ccnnc4)nc13)C2 [Example 207, ((1S,2R)-2-fluorocyclopropyl)(3-(2-(pyridazin-4-yl)-3H-imidazo[4,5-b]pyridin-7-yl)-3,8-diazabicyclo[3.2.1]octan-8-yl)methanone] | 150 | 2680 | 126 | 39.6 |
| O=C([C@@H]1C[C@H]1F)N1C2CCC1CN(c1ccnc3[nH]c(C4CC4)nc13)C2 [Example 208, (3-(2-cyclopropyl-3H-imidazo[4,5-b]pyridin-7-yl)-3,8-diazabicyclo[3.2.1]octan-8-yl)((1S,2R)-2-fluorocyclopropyl)methanone] | 772 | 6420 | 716 | 85.4 |
| O=C([C@@H]1C[C@H]1F)N1C2CCC1CN(c1ccnc3[nH]c(C4CCC4)nc13)C2 [Example 209, (3-(2-cyclobutyl-3H-imidazo[4,5-b]pyridin-7-yl)-3,8-diazabicyclo[3.2.1]octan-8-yl)((1S,2R)-2-fluorocyclopropyl)methanone] | 8500 | 8590 | 1710 | 358 |
| O=C([C@@H]1C[C@H]1F)N1C2CCC1CN(c1ccnc3[nH]c(C4(F)CC4)nc13)C2 [Example 210, ((1S,2R)-2-fluorocyclopropyl)(3-(2-(1-fluorocyclopropyl)-3H-imidazo[4,5-b]pyridin-7-yl)-3,8-diazabicyclo[3.2.1]octan-8-yl)methanone] | 2600 | 5520 | 798 | 398 |
| O=C([C@@H]1C[C@H]1F)N1C2CCC1CN(c1ccnc3[nH]c(C4CCOC4)nc13)C2 (stereo partly drawn) [Example 211, ((1S,2R)-2-fluorocyclopropyl)(3-(2-(tetrahydrofuran-3-yl)-3H-imidazo[4,5-b]pyridin-7-yl)-3,8-diazabicyclo[3.2.1]octan-8-yl)methanone] | 10000 | 10000 | 5780 | 676 |
| O=C([C@@H]1C[C@H]1F)N1C2CCC1CN(c1ccnc3[nH]c(N4CCOCC4)nc13)C2 [Example 212, ((1S,2R)-2-fluorocyclopropyl)(3-(2-morpholino-3H-imidazo[4,5-b]pyridin-7-yl)-3,8-diazabicyclo[3.2.1]octan-8-yl)methanone] | 650 | 4220 | 322 | 30.5 |
| Cn1cc(-c2nc3c(N4CC5CCC(C4)N5C(=O)[C@@H]4C[C@H]4F)c(F)cnc3[nH]2)c(F)n1 [Example 213, (3-(6-fluoro-2-(3-fluoro-1-methyl-1H-pyrazol-4-yl)-3H-imidazo[4,5-b]pyridin-7-yl)-3,8-diazabicyclo[3.2.1]octan-8-yl)((1S,2R)-2-fluorocyclopropyl)methanone] | 25 | 87 | 37 | 2.5 |
| O=C(C1CC1)N1C2CCC1CN(c1ccnc3[nH]c(-c4cnn(C(F)F)c4)nc13)C2 [Example 214, cyclopropyl(3-(2-(1-(difluoromethyl)-1H-pyrazol-4-yl)-3H-imidazo[4,5-b]pyridin-7-yl)-3,8-diazabicyclo[3.2.1]octan-8-yl)methanone] | 62 | 346 | 94 | 7.6 |
| N#CC1CC1c1nc2c(N3CC4CCC(C3)N4C(=O)[C@@H]3C[C@H]3F)ccnc2[nH]1 (stereo partly drawn) [Example 215, 2-(7-(8-((1S,2R)-2-fluorocyclopropane-1-carbonyl)-3,8-diazabicyclo[3.2.1]octan-3-yl)-3H-imidazo[4,5-b]pyridin-2-yl)cyclopropane-1-carbonitrile] | 5350 | 10000 | 2180 | 484 |
| Cn1cc(-c2nc3c(N4CC5CCC(C4)N5C(=O)[C@@H]4C[C@H]4F)ccnc3[nH]2)c(F)n1 [Example 216, (3-(2-(3-fluoro-1-methyl-1H-pyrazol-4-yl)-3H-imidazo[4,5-b]pyridin-7-yl)-3,8-diazabicyclo[3.2.1]octan-8-yl)((1S,2R)-2-fluorocyclopropyl)methanone] | 14 | 235 | 41 | 1.9 |
| CNc1cc(-c2nc3c(N4CC5CCC(C4)N5C(=O)[C@@H]4C[C@H]4F)ccnc3[nH]2)ccn1 [Example 217, ((1S,2R)-2-fluorocyclopropyl)(3-(2-(2-(methylamino)pyridin-4-yl)-3H-imidazo[4,5-b]pyridin-7-yl)-3,8-diazabicyclo[3.2.1]octan-8-yl)methanone] | 8 | 107 | 3 | 0.4 |
| CN1CCOC(c2nc3c(N4CC5CCC(C4)N5C(=O)[C@@H]4C[C@H]4F)ccnc3[nH]2)C1 (stereo partly drawn) [Example 218, ((1S,2R)-2-fluorocyclopropyl)(3-(2-(4-methylmorpholin-2-yl)-3H-imidazo[4,5-b]pyridin-7-yl)-3,8-diazabicyclo[3.2.1]octan-8-yl)methanone] | 10000 | 10000 | 2940 | 783 |
| O=C(C1CC1)N1C2CCC1CN(c1ncnc3[nH]c(-c4cnn(C(F)F)c4)cc13)C2 [Example 219, cyclopropyl(3-(6-(1-(difluoromethyl)-1H-pyrazol-4-yl)-7H-pyrrolo[2,3-d]pyrimidin-4-yl)-3,8-diazabicyclo[3.2.1]octan-8-yl)methanone] | 752 | 698 | 232 | 23.6 |
| Cn1cc(-c2cc3c(N4CC5CCC(C4)N5C(=O)C4CC4)ncnc3[nH]2)cn1 [Example 220, cyclopropyl(3-(6-(1-methyl-1H-pyrazol-4-yl)-7H-pyrrolo[2,3-d]pyrimidin-4-yl)-3,8-diazabicyclo[3.2.1]octan-8-yl)methanone] | 690 | 501 | 242 | 34 |
| O=C([C@@H]1C[C@H]1F)N1C2CCC1CN(c1ncnc3[nH]c(-c4cnn(C(F)F)c4)cc13)C2 [Example 221, (3-(6-(1-(difluoromethyl)-1H-pyrazol-4-yl)-7H-pyrrolo[2,3-d]pyrimidin-4-yl)-3,8-diazabicyclo[3.2.1]octan-8-yl)((1S,2R)-2-fluorocyclopropyl)methanone] | 73 | 461 | 82 | 2.8 |
